The target in one series is T1, Lysozyme protein (Gallus gallus, UniProt P00698).
T1 construct: the Lysozyme protein attained from chicken egg white; purchased Sigma-Aldrich; host or cells: chicken egg white (natural source)
Nature of the series: Interaction with lysozyme by cyclic voltammetry. More on the design: species or system chicken. The conditions noted are these: 0.2 mM complex. The method, then: (§1) The voltammetric measurements were performed by using three electrode based Auto Lab electrochemical workstation (Netherland). The working electrode was glassy carbon electrode (GCE), while Ag/AgCl and platinum were used as reference counter electrodes respectively. The weights of the chemicals were measured by using GR-2000 electrical balance. The pH of the buffer was controlled by Accumet® XL50 pH meter. For electrochemical analysis, the compounds 1 and 2 were dissolved in the ethanol as their solubility was very poor in aqueous medium. Prior to each analysis, the GCE was polished as a mirror like surface with alumina slurry on the synthetic clothe. The cyclic voltammograms for various analyses were recorded from 0.0 V to +1.3 V with a scan rate of 0.1 V/s. Electrochemical behavior may be studied using the methods described by Al-Jaroudi et al. and Seliman et al. (incorporated by reference) and well known model proteins. See S. S. Al-Jaroudi, M. Altaf, A. Al-Saadi, A.-N. Kawde, S. Altuwaijri, S. Ahmad and A. A. Isab, Biometals, 2015, 28, 827-844; and A. Seliman, M. Altaf, A. Kawde, M. Wazeer and A. Isab, J. Coord. Chem., 2014, 67, 3431-3443, each incorporated herein by reference in their entirety.
Moreover, the interaction of these compounds was also explored with the Lysozyme protein attained from chicken egg white.

The subject of series [1] is HCT15 (colon cancer cells). Briefly: In vitro cytotoxic activity, MTT assay, HCT15. The class given is cell-based, human. The conditions noted are these: 24 h incubation with complex, mean ± standard deviation. As to the method:
(§2) To examine the possible anticancer effect of complexes 1, 2, and cisplatin, a panel of three human tumor cell lines, A549 (lung cancer cells), MCF7 (breast cancer cells) and HCT15 (colon cancer cells) was used. The different human carcinoma cell cultures (A549, MCF7, HCT15) were first seeded at the concentration of 2×10^4 cells per mL in their respective growth mediums containing 10% FBS (fetal bovine serum) in a 96-well tissue culture plate and were incubated for 72 h at 37° C., 5% CO2 in air and 90% relative humidity in a CO2 incubator. After that the cell cultures were incubated for 24 h with 100 μL of cisplatin and the complexes (1-3) having 100, 50, 25 and 12.5 μM concentrations, prepared in growth medium. Further, the cultures were incubated with 100 μL of vital mitochondrial tetrazolium dye (3-(4,5-dimethylthiazol-2-yl)-2,5-diphenyltetrazolium bromide) (0.5 mg/ml) in a CO2 incubator at 37° C. in the dark for 4 h. After incubation, purple colored formazan crystals were formed due to the reduction of dye by mitochondrial succinate dehydrogenase enzyme. The resultant crystals were solublized by adding 100 μL of dimethylsulfoxide (DMSO). The colored solution formed was thoroughly mixed and read spectrophotometrically at 570 nm with Lab systems Multiskan EX-Enzyme-linked immunosorbent assay (EX-ELISA) reader against a reagent blank. All data presented are mean±standard deviation.
(§3) The anticancer activity of complexes 1-3 as well as cisplatin was evaluated against a panel of representative human tumor cell lines, which include, lung cancer cells (A549), breast cancer cells (MCF7) and colon cancer cells (HCT15). The results of in vitro cytotoxic activity are expressed as IC50 (concentration causing 50% reduction in cell viability) and are presented in Table 4. […] For 1, the IC50 values are closer to cisplatin. In going from 1 to 2, the substitution of two chlorine atoms by the chelating diamine ligand brought about a 1.5-3 times decrease in the antiproliferative activity of 2.

The test system of series [2] is MCF7 (breast cancer cells). Briefly: In vitro cytotoxic activity, MTT assay, MCF7. The conditions noted are these: 24 h incubation with complex, mean ± standard deviation. The format is cell-based, human. As to the method:
as §2, §3

A further series relates to A549 (lung cancer cells). Nature of the series: In vitro cytotoxic activity, MTT assay, A549. The format is cell-based, human. Conditions: 24 h incubation with complex, mean ± standard deviation. The method, then: as §2, §3
Series [3] is described as follows: Cyclic voltammetry of the complexes at glassy carbon electrode. The class given is physicochemical. The conditions noted are these: cyclic voltammetric measurements. The method, then:
as §1, with “See S. S. Al-Jaroudi, M. Altaf, A. Al-Saadi, A.-N. Kawde, S. Altuwaijri, S. Ahmad and A. A. Isab, Biometals, 2015, 28, 827-844; and A. Seliman, M. Altaf, A. Kawde, M. Wazeer and A. Isab, J. Coord. Chem., 2014, 67, 3431-3443, each incorporated herein by reference in their entirety.” left out
To get an insight into the reactivity of the complexes, the interactions of complexes 1 and 2 with model proteins, L-tyrosine, glutathione and lysozyme were studied electrochemically. The electrochemical behavior of complexes 1 and 2 in the presence of the proteins was analyzed by cyclic voltammetric technique (CV). […]

A short description of series [4]: Solubility in aqueous medium. The class given is physicochemical.
The test system of series [5] is A549, MCF7 and HCT15 cells. Nature of the series: In vitro cytotoxic activity, statements on the whole panel of three tumor cell lines. The format is cell-based, human. The method, then: as §2, with “After incubation, purple colored formazan crystals were formed due to the reduction of dye by mitochondrial succinate dehydrogenase enzyme. The resultant crystals were solublized by adding 100 μL of dimethylsulfoxide (DMSO).” left out, “All data presented are mean±standard deviation.” left out
The anticancer activity of complexes 1-3 as well as cisplatin was evaluated against a panel of representative human tumor cell lines, which include, lung cancer cells (A549), breast cancer cells (MCF7) and colon cancer cells (HCT15). […]

T1 sequence (P00698 19-147): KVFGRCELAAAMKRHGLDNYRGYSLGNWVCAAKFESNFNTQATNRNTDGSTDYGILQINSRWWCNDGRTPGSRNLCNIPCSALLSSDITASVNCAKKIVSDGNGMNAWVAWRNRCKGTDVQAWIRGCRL

In the case of `NC(c1cccc2ccccc12)C(N)c1cccc2ccccc12.O.O.[Au+3].[Cl-].[Cl-].[Cl-]` (stereo not drawn) [Complex 1, [Au(npen)Cl2]Cl.2H2O], the “effect of successive addition of Lysozyme on the complex peaks” value at Lysozyme protein is “decrease in the current intensities of the complex peaks”. Moreover, the “interaction with Lysozyme (comparison)” value at Lysozyme protein was “more significant”. The IC50 came to 9.4 ± 1.93 µM in series [1], 11.8 ± 2.6 µM in series [2] and 28.8 ± 4.02 µM in the series on A549 (lung cancer cells). The “stability of gold(III) center during reaction with L-tyrosine, glutathione and lysozyme” value in series [3] was “remained stable”. Also, in series [4], the “solubility in aqueous medium” value is listed as “very poor”. Besides, in series [5] (A549, MCF7, HCT15), the “antiproliferative potency, rank among the complexes” value is on record as “least active”.

In the case of `N.N.[Cl][Pt][Cl]` [Cisplatin, cisplatin, reference compound], the half-inhibitory concentration (IC50) in series [1] was 23.1 ± 3.78 µM; in series [2], 23.1 ± 3.78 µM; in the series on A549 (lung cancer cells), 42.9 ± 1.99 µM.

As to [Au(npen)2]Cl3 [Complex 2], the “effect of successive addition of Lysozyme on the complex peaks” value on Lysozyme protein is on record as “decrease in the current intensities of the complex peaks”. Besides, the IC50 in series [1] came out at 4.23 ± 1.31 µM; in series [2], 7.77 ± 1.82 µM; in the series on A549 (lung cancer cells), 10.3 ± 2.82 µM. Further, the “stability of gold(III) center during reaction with L-tyrosine, glutathione and lysozyme” value in series [3] is reported as “remained stable”. Also, the “solubility in aqueous medium” value in series [4] is “very poor”. Further, the “decrease in the antiproliferative activity in going from 1 to 2” value in series [5] (2 compared with 1, three cell lines) is given as 1.5-3 times.

These data come from patent publication US10160773B2, “Method for inducing cytotoxicity in cancer cells” (King Fahd University of Petroleum and Minerals, priority 2016, dated 2018).
